Values quoted from earlier work as cited in patent US20090047276A1, “METHODS FOR […] OR TISSUE RE[…] A […]” (UNIVERSITY OF WASHINGTON, priority 2007, published 2009).
pEC50: −log10 of the molar value.

Tests used:
[1] = tested on: GSK-3; details: literature values (Ring et al. 2003; Cline et al. 2002); read-out: half-maximal effective concentration [EC50]
[2] = tested on: GSK-3; details: literature values (Ring et al. 2003; Cline et al. 2002)

SMILES	pEC50 [1]	selectivity for GSK-3 [2]
O=[N+]([O-])c1ccc(NCCNc2ncc(-c3ncc[nH]3)c(-c3ccc(Cl)cc3Cl)n2)nc1 [CHIR-837]	6.43	> 5,000 fold
